Test results: ChEMBL document CHEMBL1201862, “PubChem BioAssay data set” (2004)
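How tested: cells in 96-well plates exposed to compound for 48 hours at five concentrations. Here, GI50 denotes the concentration required for 50% inhibition of growth.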 Activity calls are given as the source filed them. No stated cut-off is given here; in the data, active = GI50 up to about 1.1 µM and inactive = higher.

Assays:
Assay in all cases: NCI anticancer screen, dose series, 48 h
[1] = system: A549
[2] = system: HOP-92
[3] = system: HCT-116
[4] = system: UACC-62
[5] = system: ACHN
[6] = system: NCI-H23
[7] = system: HCT-15
[8] = system: MCF7
[9] = system: K562
[10] = system: T47D
[11] = system: BT-549
[12] = system: HT-29
[13] = system: SNB-75
[14] = system: SF-539
[15] = system: HCC 2998
[16] = system: SF-295
[17] = system: M14
[18] = system: NCI/ADR-RES
[19] = system: UACC-257
[20] = system: COLO 205
[21] = system: SNB-19
[22] = system: LOX IMVI
[23] = system: HOP-62
[24] = system: NCI-H460
[25] = system: U-251
[26] = system: SK-OV-3
[27] = system: TK-10
[28] = system: SF-268
[29] = system: OVCAR-5
[30] = system: DU-145
[31] = system: KM12
[32] = system: SK-MEL-5
[33] = system: SK-MEL-28
[34] = system: OVCAR-3
[35] = system: CCRF-CEM
[36] = system: CAKI-1
[37] = system: SW-620
[38] = system: SK-MEL-2
[39] = system: A498
[40] = system: MDA-MB-435
[41] = system: NCI-H522
[42] = system: IGROV-1
[43] = system: 786-0
[44] = system: EKVX
[45] = system: MDA-N
[46] = system: RPMI-8226
[47] = system: PC-3
[48] = system: HL-60
[49] = system: SN12C
[50] = system: MOLT-4
[51] = system: OVCAR-8
[52] = system: UO-31
[53] = system: Hs-578T
[54] = system: SR
[55] = system: RXF 393
[56] = system: MDA-MB-231
[57] = system: Malme-3M
[58] = system: NCI-H226
[59] = system: OVCAR-4

O=C(O)Cc1cc(F)ccc1C(=O)O
GI50 [1]: > 100 µM (inactive) | GI50 [2]: > 100 µM (inactive) | GI50 [3]: > 100 µM (inactive) | GI50 [4]: > 100 µM (inactive) | GI50 [5]: > 100 µM (inactive) | GI50 [6]: > 100 µM (inactive) | GI50 [7]: 73.5 µM | GI50 [8]: > 100 µM (inactive) | GI50 [9]: > 100 µM (inactive) | GI50 [10]: > 100 µM (inactive) | GI50 [11]: > 100 µM (inactive) | GI50 [12]: > 100 µM (inactive) | GI50 [13]: 80.4 µM (inactive) | GI50 [14]: > 100 µM (inactive) | GI50 [15]: > 100 µM (inactive) | GI50 [16]: > 100 µM (inactive) | GI50 [17]: > 100 µM (inactive) | GI50 [18]: > 100 µM (inactive) | GI50 [19]: > 100 µM (inactive) | GI50 [20]: > 100 µM (inactive) | GI50 [21]: > 100 µM (inactive) | GI50 [22]: > 100 µM (inactive) | GI50 [23]: > 100 µM (inactive) | GI50 [24]: > 100 µM (inactive) | GI50 [25]: > 100 µM (inactive) | GI50 [26]: > 100 µM (inactive) | GI50 [27]: > 100 µM (inactive) | GI50 [28]: > 100 µM (inactive) | GI50 [29]: > 100 µM (inactive) | GI50 [30]: > 100 µM (inactive) | GI50 [31]: > 100 µM (inactive) | GI50 [32]: > 100 µM (inactive) | GI50 [33]: 60.3 µM (inactive) | GI50 [34]: > 100 µM (inactive) | GI50 [35]: > 100 µM (inactive) | GI50 [36]: 31 µM (inactive) | GI50 [37]: > 100 µM (inactive) | GI50 [38]: > 100 µM (inactive) | GI50 [39]: > 100 µM (inactive) | GI50 [40]: > 100 µM (inactive) | GI50 [41]: 92 µM (inactive) | GI50 [42]: 23.6 µM (inactive) | GI50 [43]: > 100 µM (inactive) | GI50 [44]: > 100 µM (inactive) | GI50 [45]: > 100 µM (inactive) | GI50 [46]: > 100 µM (inactive) | GI50 [47]: > 100 µM (inactive) | GI50 [48]: > 100 µM (inactive) | GI50 [49]: > 100 µM (inactive) | GI50 [50]: > 100 µM (inactive) | GI50 [51]: > 100 µM (inactive) | GI50 [52]: > 100 µM (inactive) | GI50 [53]: > 100 µM (inactive) | GI50 [54]: 77.1 µM (inactive) | GI50 [55]: 58.5 µM (inactive) | GI50 [56]: > 100 µM (inactive)

CC1CCCC(C(=O)CC2CC(=O)NC(=O)C2)C1=O (centres undefined)
GI50 [1]: > 100 µM (inactive) | GI50 [2]: > 100 µM (inactive) | GI50 [3]: > 100 µM (inactive) | GI50 [4]: > 100 µM (inactive) | GI50 [57]: > 100 µM (inactive) | GI50 [5]: > 100 µM (inactive) | GI50 [6]: > 100 µM (inactive) | GI50 [7]: > 100 µM | GI50 [8]: > 100 µM (inactive) | GI50 [9]: > 100 µM (inactive) | GI50 [10]: > 100 µM (inactive) | GI50 [11]: > 100 µM (inactive) | GI50 [12]: > 100 µM (inactive) | GI50 [13]: > 100 µM (inactive) | GI50 [14]: > 100 µM (inactive) | GI50 [15]: > 100 µM (inactive) | GI50 [16]: > 100 µM (inactive) | GI50 [17]: > 100 µM (inactive) | GI50 [18]: > 100 µM (inactive) | GI50 [19]: > 100 µM (inactive) | GI50 [20]: > 100 µM (inactive) | GI50 [21]: > 100 µM (inactive) | GI50 [22]: > 100 µM (inactive) | GI50 [23]: > 100 µM (inactive) | GI50 [24]: > 100 µM (inactive) | GI50 [58]: > 100 µM (inactive) | GI50 [25]: > 100 µM (inactive) | GI50 [26]: > 100 µM (inactive) | GI50 [27]: > 100 µM (inactive) | GI50 [28]: > 100 µM (inactive) | GI50 [29]: > 100 µM (inactive) | GI50 [30]: > 100 µM (inactive) | GI50 [31]: > 100 µM (inactive) | GI50 [32]: > 100 µM (inactive) | GI50 [33]: > 100 µM (inactive) | GI50 [34]: > 100 µM (inactive) | GI50 [35]: > 100 µM (inactive) | GI50 [36]: > 100 µM (inactive) | GI50 [37]: > 100 µM (inactive) | GI50 [38]: > 100 µM (inactive) | GI50 [39]: > 100 µM (inactive) | GI50 [40]: > 100 µM (inactive) | GI50 [42]: > 100 µM (inactive) | GI50 [43]: > 100 µM (inactive) | GI50 [44]: > 100 µM (inactive) | GI50 [45]: > 100 µM (inactive) | GI50 [46]: > 100 µM (inactive) | GI50 [47]: > 100 µM (inactive) | GI50 [48]: > 100 µM (inactive) | GI50 [49]: > 100 µM (inactive) | GI50 [50]: > 100 µM (inactive) | GI50 [51]: > 100 µM (inactive) | GI50 [52]: > 100 µM (inactive) | GI50 [53]: > 100 µM (inactive) | GI50 [59]: > 100 µM (inactive) | GI50 [54]: > 100 µM (inactive) | GI50 [55]: > 100 µM (inactive) | GI50 [56]: > 100 µM (inactive)
